# Calls of active or inactive are those of the source. Cut-off read from the data, not from the text of the source, for most assays here: actives have a measured Kd and inactives only a lower limit.
# Tests used:
# [1] = target: T1, dCTP pyrophosphatase 1 (Homo sapiens, UniProt Q9H773)
# T1 sequence (Q9H773 whole entry): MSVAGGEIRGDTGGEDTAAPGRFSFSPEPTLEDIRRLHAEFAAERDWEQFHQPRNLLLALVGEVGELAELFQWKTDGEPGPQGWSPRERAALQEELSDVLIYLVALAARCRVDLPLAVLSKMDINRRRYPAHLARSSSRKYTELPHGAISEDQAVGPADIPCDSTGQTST
# [2] = target: T2, Activin receptor type-1 (Homo sapiens, UniProt Q04771)
# T2 sequence (Q04771 whole entry): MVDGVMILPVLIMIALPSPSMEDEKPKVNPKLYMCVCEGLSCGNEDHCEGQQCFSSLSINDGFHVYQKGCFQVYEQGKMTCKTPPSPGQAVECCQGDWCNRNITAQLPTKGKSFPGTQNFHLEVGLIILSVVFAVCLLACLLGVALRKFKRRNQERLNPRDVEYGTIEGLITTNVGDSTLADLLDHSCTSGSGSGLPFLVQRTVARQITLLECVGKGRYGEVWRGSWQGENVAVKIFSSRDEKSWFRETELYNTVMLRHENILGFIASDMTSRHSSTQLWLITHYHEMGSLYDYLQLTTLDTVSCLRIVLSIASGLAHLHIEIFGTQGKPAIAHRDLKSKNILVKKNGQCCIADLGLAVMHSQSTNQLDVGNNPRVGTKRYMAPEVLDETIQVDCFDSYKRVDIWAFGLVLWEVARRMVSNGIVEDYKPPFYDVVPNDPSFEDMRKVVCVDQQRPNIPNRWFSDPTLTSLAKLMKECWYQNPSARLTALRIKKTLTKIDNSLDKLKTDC
# [3] = target: T3, General transcription and DNA repair factor IIH helicase subunit XPD (Homo sapiens, UniProt P18074); details: read-out: Kd apparent; k-562, colo 205, sk-n-be(2) and mv-4-11
# T3 sequence (P18074 whole entry): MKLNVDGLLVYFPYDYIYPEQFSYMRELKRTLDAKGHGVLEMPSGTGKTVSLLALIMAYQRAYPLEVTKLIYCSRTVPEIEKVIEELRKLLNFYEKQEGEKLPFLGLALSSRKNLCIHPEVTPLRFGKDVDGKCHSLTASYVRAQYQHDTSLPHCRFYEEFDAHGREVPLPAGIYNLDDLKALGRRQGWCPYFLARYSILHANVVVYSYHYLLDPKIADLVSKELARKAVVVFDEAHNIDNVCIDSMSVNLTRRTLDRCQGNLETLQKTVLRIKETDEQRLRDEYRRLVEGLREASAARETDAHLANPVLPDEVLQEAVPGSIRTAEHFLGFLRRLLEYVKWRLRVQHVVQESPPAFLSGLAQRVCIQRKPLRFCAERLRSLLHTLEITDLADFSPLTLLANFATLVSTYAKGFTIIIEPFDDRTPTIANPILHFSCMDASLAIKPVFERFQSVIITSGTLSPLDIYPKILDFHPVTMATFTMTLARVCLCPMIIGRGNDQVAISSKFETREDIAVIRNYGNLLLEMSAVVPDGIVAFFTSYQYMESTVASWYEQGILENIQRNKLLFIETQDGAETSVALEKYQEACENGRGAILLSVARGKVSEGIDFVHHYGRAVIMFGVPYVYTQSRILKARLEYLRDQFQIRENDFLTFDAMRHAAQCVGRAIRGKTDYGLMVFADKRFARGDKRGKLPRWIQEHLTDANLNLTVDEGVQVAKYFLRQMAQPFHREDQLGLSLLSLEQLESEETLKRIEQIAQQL
# [4] = target: T4, Aurora kinase A (Homo sapiens, UniProt O14965)
# T4 sequence (O14965 whole entry): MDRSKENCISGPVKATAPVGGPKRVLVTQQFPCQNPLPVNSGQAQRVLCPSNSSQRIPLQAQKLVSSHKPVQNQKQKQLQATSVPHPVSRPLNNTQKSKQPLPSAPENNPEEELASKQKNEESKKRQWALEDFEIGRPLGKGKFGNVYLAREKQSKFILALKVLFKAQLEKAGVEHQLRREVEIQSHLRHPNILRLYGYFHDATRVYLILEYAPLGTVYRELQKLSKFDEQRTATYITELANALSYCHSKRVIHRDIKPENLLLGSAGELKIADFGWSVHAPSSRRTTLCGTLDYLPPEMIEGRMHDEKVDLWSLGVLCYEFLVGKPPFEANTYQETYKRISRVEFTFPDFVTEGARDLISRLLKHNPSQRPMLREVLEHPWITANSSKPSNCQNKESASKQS
# [5] = target: LIM domain kinase 2 (Homo sapiens, UniProt P53671)
# Chain of LIM domain kinase 2 (P53671 whole entry, the tested form may be a part): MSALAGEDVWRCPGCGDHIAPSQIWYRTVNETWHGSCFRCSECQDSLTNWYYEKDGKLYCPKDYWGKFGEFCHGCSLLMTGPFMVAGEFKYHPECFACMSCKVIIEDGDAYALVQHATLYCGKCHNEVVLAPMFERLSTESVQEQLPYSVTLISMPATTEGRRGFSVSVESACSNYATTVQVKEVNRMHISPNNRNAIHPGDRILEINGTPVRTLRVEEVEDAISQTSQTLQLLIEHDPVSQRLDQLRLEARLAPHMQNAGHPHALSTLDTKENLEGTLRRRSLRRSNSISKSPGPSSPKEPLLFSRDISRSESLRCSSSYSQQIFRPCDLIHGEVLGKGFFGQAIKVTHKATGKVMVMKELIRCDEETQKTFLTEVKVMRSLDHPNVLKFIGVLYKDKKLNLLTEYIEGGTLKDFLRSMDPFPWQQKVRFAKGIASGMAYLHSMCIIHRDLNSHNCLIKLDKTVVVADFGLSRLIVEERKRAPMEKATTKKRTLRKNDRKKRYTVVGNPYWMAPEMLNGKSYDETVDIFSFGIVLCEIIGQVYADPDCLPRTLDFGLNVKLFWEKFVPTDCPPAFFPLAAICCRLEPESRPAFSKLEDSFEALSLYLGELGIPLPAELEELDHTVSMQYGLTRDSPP
# [6] = target: T5, Mitogen-activated protein kinase kinase kinase kinase 3 (Homo sapiens, UniProt Q8IVH8)
# T5 sequence (Q8IVH8 whole entry): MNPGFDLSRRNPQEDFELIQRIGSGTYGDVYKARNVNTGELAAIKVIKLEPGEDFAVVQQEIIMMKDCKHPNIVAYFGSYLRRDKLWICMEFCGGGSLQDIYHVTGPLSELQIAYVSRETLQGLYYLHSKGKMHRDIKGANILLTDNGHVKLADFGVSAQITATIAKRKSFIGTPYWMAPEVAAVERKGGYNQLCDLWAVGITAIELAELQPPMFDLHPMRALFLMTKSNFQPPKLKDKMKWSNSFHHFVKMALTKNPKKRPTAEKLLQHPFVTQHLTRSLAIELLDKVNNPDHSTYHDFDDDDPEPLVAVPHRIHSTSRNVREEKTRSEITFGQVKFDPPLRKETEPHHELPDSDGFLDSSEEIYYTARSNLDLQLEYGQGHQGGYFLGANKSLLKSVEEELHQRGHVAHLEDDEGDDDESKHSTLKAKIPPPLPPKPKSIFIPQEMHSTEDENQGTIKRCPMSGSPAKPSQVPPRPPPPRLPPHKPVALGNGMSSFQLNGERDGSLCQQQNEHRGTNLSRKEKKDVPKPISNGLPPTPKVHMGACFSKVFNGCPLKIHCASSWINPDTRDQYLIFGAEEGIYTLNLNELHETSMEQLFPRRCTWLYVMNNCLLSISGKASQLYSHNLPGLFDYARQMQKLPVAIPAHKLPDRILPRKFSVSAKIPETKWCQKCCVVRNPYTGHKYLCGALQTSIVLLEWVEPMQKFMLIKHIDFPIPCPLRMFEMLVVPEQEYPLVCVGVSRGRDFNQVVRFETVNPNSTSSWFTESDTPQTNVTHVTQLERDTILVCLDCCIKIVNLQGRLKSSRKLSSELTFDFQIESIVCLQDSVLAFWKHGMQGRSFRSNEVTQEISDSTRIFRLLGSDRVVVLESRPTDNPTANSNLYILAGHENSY
# [7] = target: Calcium/calmodulin-dependent protein kinase type II subunit delta (Homo sapiens, UniProt Q13557)
# Chain of Calcium/calmodulin-dependent protein kinase type II subunit delta (Q13557 whole entry): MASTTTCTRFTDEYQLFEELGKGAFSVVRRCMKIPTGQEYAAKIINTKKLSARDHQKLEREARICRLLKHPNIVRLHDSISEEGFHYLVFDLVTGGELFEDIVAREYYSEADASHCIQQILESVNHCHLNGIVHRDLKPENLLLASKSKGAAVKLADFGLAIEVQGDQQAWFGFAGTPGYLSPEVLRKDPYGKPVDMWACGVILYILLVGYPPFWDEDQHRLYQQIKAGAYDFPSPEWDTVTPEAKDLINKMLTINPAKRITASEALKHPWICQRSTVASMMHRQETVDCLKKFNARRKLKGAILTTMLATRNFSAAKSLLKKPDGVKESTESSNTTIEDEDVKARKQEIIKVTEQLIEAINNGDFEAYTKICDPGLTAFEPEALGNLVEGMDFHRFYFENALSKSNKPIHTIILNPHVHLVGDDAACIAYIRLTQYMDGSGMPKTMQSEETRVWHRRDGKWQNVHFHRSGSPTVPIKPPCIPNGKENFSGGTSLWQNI
# Note: in the data inactive means no Kd found up to 30 µM.
Compound,Kd [1],Kd [2],Kd [3],Kd [4],Kd [5],Kd [6],Kd [7]
CC(C)Nc1cc(-c2c[nH]c(C(=O)N[C@H](CO)c3cccc(Cl)c3)c2)c(Cl)cn1 [ULIXERTINIB],> 30 µM (inactive),> 30 µM (inactive),> 30 µM (inactive),> 30 µM (inactive),> 30 µM (inactive),> 30 µM (inactive),> 30 µM (inactive)
Cc1ccc(-n2nc(C(C)(C)C)cc2NC(=O)NCc2cc(F)ccc2Oc2ccc3c(cnn3CCO)c2)cc1 [PEXMETINIB],> 30 µM (inactive),> 30 µM (inactive),> 30 µM (inactive),> 30 µM (inactive),> 30 µM (inactive),> 30 µM (inactive),> 30 µM (inactive)
CC(=O)Nc1cccc(-n2c(=O)n(C3CC3)c(=O)c3c(Nc4ccc(I)cc4F)n(C)c(=O)c(C)c32)c1 [TRAMETINIB],> 30 µM (inactive),> 30 µM (inactive),> 30 µM (inactive),> 30 µM (inactive),> 30 µM (inactive),> 30 µM (inactive),> 30 µM (inactive)
COC(=O)N[C@@H](C)CNc1nccc(-c2cn(C(C)C)nc2-c2cc(Cl)cc(NS(C)(=O)=O)c2F)n1 [ENCORAFENIB],> 30 µM (inactive),> 30 µM (inactive),> 30 µM (inactive),> 30 µM (inactive),0.096 µM (active),> 30 µM (inactive),> 30 µM (inactive)
O=C(Nc1ccc(-c2ccnc(Nc3ccc(N4CCOCC4)cc3)n2)cc1)C1CCCN1 (centres undefined) [XL-019],> 30 µM (inactive),> 30 µM (inactive),> 30 µM (inactive),> 30 µM (inactive),> 30 µM (inactive),> 30 µM (inactive),> 30 µM (inactive)
CCn1c(=O)c(-c2cc[nH]n2)cc2c(C)nc(N)nc21 [VOXTALISIB],> 30 µM (inactive),> 30 µM (inactive),> 30 µM (inactive),> 30 µM (inactive),> 30 µM (inactive),> 30 µM (inactive),> 30 µM (inactive)
Cc1ccc(NC(=O)c2ccc(CN3CC[C@H](N(C)C)C3)c(C(F)(F)F)c2)cc1Nc1nccc(-c2cncnc2)n1 [BAFETINIB],> 30 µM (inactive),> 30 µM (inactive),> 30 µM (inactive),> 30 µM (inactive),> 30 µM (inactive),> 30 µM (inactive),> 30 µM (inactive)
COc1ccc(-c2ccc3c(N4CCOC[C@@H]4C)nc(N4CCOC[C@@H]4C)nc3n2)cc1CO [AZD-8055],> 30 µM (inactive),> 30 µM (inactive),> 30 µM (inactive),> 30 µM (inactive),> 30 µM (inactive),> 30 µM (inactive),> 30 µM (inactive)
Cn1cc(-c2ccc(F)c(C(F)(F)F)c2)nc1C1CCN(c2ncnc3[nH]ncc23)CC1 [LY-2584702],> 30 µM (inactive),> 30 µM (inactive),> 30 µM (inactive),> 30 µM (inactive),> 30 µM (inactive),> 30 µM (inactive),> 30 µM (inactive)
N[C@@H]1CCCN(c2c(/C=C3\SC(=O)NC3=O)cccc2-c2ccccc2)C1,> 30 µM (inactive),> 30 µM (inactive),> 30 µM (inactive),> 30 µM (inactive),> 30 µM (inactive),> 30 µM (inactive),> 30 µM (inactive)
CNC(=O)CN1CCC(Oc2cc3c(Nc4cccc(Cl)c4F)ncnc3cc2OC)CC1 [SAPITINIB],> 30 µM (inactive),> 30 µM (inactive),> 30 µM (inactive),> 30 µM (inactive),> 30 µM (inactive),> 30 µM (inactive),> 30 µM (inactive)
CNC(=O)c1ccc(C)c(-n2c(C)cc(OCc3ccc(F)cc3F)c(Br)c2=O)c1 [PH-797804],> 30 µM (inactive),> 30 µM (inactive),> 30 µM (inactive),> 30 µM (inactive),> 30 µM (inactive),> 30 µM (inactive),> 30 µM (inactive)
COCCNCc1ccc(-c2cc3nccc(Oc4ccc(NC(=S)NC(=O)Cc5ccc(F)cc5)cc4F)c3s2)nc1 [GLESATINIB],> 30 µM (inactive),> 30 µM (inactive),> 30 µM (inactive),> 30 µM (inactive),> 30 µM (inactive),> 30 µM (inactive),> 30 µM (inactive)
CCN1CCN(Cc2ccc(-c3cc4c(N[C@H](C)c5ccccc5)ncnc4[nH]3)cc2)CC1 [AEE-788],> 30 µM (inactive),16.1 µM (active),> 30 µM (inactive),> 30 µM (inactive),21.8 µM (active),> 30 µM (inactive),> 30 µM (inactive)
CN1CC[C@@H](c2c(O)cc(O)c3c(=O)cc(-c4ccccc4Cl)oc23)[C@@H]1CO,> 30 µM (inactive),> 30 µM (inactive),> 30 µM (inactive),> 30 µM (inactive),> 30 µM (inactive),> 30 µM (inactive),> 30 µM (inactive)
COc1cc(OC)c(/C=C/S(=O)(=O)Cc2ccc(OC)c(NCC(=O)O)c2)c(OC)c1 [RIGOSERTIB],> 30 µM (inactive),> 30 µM (inactive),> 30 µM (inactive),> 30 µM (inactive),> 30 µM (inactive),> 30 µM (inactive),> 30 µM (inactive)
C1=C/COCc2cc(ccc2OCCN2CCCC2)Nc2nccc(n2)-c2cccc(c2)COC/1 [PACRITINIB],> 30 µM (inactive),0.022 µM (active),> 30 µM (inactive),> 30 µM (inactive),52.1 µM (active),> 30 µM (inactive),> 30 µM (inactive)

# — ChEMBL document CHEMBL3991601, “The target landscape of clinical kinase drugs” (Science, 2017)
